Each block holds one compound with its values, some of them ahead of it.
Columns and labels:
cyclophilin D (CypD) [1] = biological target: T1, cyclophilin D (CypD) (Homo sapiens, UniProt P30405); test: photoactive click probe in A375 cells, azide-biotin conjugation, streptavidin pull-down and Western blot; assay type: cell-based
T1 construct: gene PPIF

STING = STING (UniProt Q86WV6); test: co-immunoprecipitation; details: reference: PERK wild type; sites T982
cyclophilin D (CypD) [2] = biological target: T1, cyclophilin D (CypD); test: SPR; also FL-DSF (KD […]) and CETSA on immunoprecipitated CypD; assay type: binding

T1 sequence (P30405 30-207): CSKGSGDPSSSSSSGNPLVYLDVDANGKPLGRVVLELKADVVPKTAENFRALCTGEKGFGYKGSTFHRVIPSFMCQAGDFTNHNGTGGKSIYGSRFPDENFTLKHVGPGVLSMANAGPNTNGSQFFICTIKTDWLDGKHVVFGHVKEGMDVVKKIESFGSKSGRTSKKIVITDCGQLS

Compound: C#CCCC1(CC(=O)OCCCCCOC(=O)c2ccc3cc(O)ccc3c2)N=N1 [DHN-P]
photoactive click probe in A375 cells, azide-biotin conjugation, streptavidin pu (cyclophilin D (CypD) [1]): DHN-P could effectively pull down CypD but not other components in the mPTP complex

Compound: PERK (from UniProt Q9NZJ5) PERK T982A
binding against the reference (STING): lost

Kd (cyclophilin D (CypD) [2]): 1190 ± 68 nM
Compound: CCCCCCCCCCCCOC(=O)c1ccc2cc(O)ccc2c1 [DHN, dodecyl 6-hydroxy-2-naphthoate]

From article PMC12435844, “cGAS activation converges with intracellular acidification to promote STING aggregation and pyroptosis in tumor models” (The Journal of Clinical Investigation, 2025)
